# Reference: ChEMBL document CHEMBL1641384, “QSAR of adenosine receptor antagonists: Exploring physicochemical requirements for binding of pyrazolo[4,3-e]-1,2,4-triazolo[1,5-c]pyrimidine derivatives with human adenosine A(3) receptor subtype” (Bioorg Med Chem Lett, 2011)
# Target: T1, Adenosine receptor A3 (Homo sapiens, UniProt P0DMS8)
# T1 sequence (P0DMS8 whole entry): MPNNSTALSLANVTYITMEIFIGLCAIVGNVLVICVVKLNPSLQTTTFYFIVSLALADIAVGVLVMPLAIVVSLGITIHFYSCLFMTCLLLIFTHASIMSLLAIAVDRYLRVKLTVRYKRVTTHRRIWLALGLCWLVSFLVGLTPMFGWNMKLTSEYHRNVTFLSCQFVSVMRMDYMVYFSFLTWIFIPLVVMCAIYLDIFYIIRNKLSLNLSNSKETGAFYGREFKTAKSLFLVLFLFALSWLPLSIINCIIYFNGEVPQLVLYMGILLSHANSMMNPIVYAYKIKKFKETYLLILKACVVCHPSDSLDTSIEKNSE
# Assay: Displacement of [3H]MRE3008-F20 from human adenosine A3 receptor expressed in CHO cells after 120 mins
# Type: cell-based
row,SMILES,Ki [nM]
1,CCn1cc2c(nc(N)n3nc(-c4ccco4)nc23)n1,407
2,CCCn1cc2c(nc(NC(=O)Nc3cccc(Cl)c3)n3nc(-c4ccco4)nc23)n1,1.58
3,CCn1cc2c(nc(NC(=O)Nc3cccc(Cl)c3)n3nc(-c4ccco4)nc23)n1,0.912
4,Cn1cc2c(nc(NC(=O)Nc3ccc4c(c3)OCO4)n3nc(-c4ccco4)nc23)n1,0.24
5,CCn1cc2c(nc(NC(=O)Nc3ccc4c(c3)OCO4)n3nc(-c4ccco4)nc23)n1,0.269
6,CCCn1cc2c(nc(NC(=O)Nc3ccc4c(c3)OCO4)n3nc(-c4ccco4)nc23)n1,0.302
7,CCCCn1cc2c(nc(NC(=O)Nc3ccc4c(c3)OCO4)n3nc(-c4ccco4)nc23)n1,0.501
8,CCCCCCCCn1cc2c(nc(NC(=O)Nc3ccc(C)cc3)n3nc(-c4ccco4)nc23)n1,4.07
9,CCCn1cc2c(nc(N)n3nc(-c4ccco4)nc23)n1,331
10,CCn1cc2c(nc(NC(=O)Nc3ccc(OC)cc3)n3nc(-c4ccco4)nc23)n1,0.794
